Legend:
[1] = tested on: weed and undesirable plant growth; test: Weed growth suspension in treated, plastic-covered soil beds; format: in vivo; details: after six days of treatment
Description: (§1) Water (27.5%), PBTC (17.5%) and hydrochloric acid (HCl) (55%) were admixed to form a first solution. Water (85%) and sodium chlorite (15%) were admixed to form a second solution. The first and second solutions were combined to form a combined solution. Sufficient contact time was allowed in the mixing vessel 12 to convert a substantial portion of the sodium chlorite solution into chlorine dioxide. The combined solution can also be referred to as chlorine dioxide. For test purposes, five soil beds were prepared. These beds were covered with sheet plastic. In the first bed, 150 ppm of chlorine dioxide was added irrigation water and the mixture was introduced to the soil bed until the soil bed was saturated. In the second soil bed, 350 ppm of chlorine dioxide was added to irrigation water and the mixture was introduced into the second soil bed until the second soil bed was saturated. The third soil bed received 750 ppm of chlorine dioxide in irrigation water until that bed was saturated. The fourth soil bed received a mixture of 950 ppm of chlorine dioxide in irrigation water until that soil bed was saturated. The fifth soil bed was treated with methyl-bromide at E.P.A. label recommended dose rates.

[2] = Crop yield and fruit quality from treated soils; format: in vivo
Description: Water (27.5%), PBTC (17.5%) and hydrochloric acid (HCl) (55%) were admixed to form a first solution. Water (85%) and sodium chlorite (15%) were admixed to form a second solution. The first and second solutions were combined to form a combined solution. Sufficient contact time was allowed in the mixing vessel 12 to convert a substantial portion of the sodium chlorite solution into chlorine dioxide. The combined solution can also be referred to as chlorine dioxide. For test purposes, five soil beds were prepared. These beds were covered with sheet plastic. […] […] […] […] The fifth soil bed was treated with methyl-bromide at E.P.A. label recommended dose rates.

[3] = Decomposition in soil and consequences to the environment; details: soil bed treatment
Description: as §1

[4] = soil treated with methyl bromide, used as at EPA label requirements

SMILES | Suspension of weed and undesirable plant growth ([1]; all four dosages (150, 350, 750, 950 ppm in irrigation water, bed saturated)) | Crates/Acres ([2]; 75 ppm solution) | Fruit Grams ([2]; 75 ppm solution) | Marketable Crates/Acre ([2]; 75 ppm solution) | Crates/Acres ([2]; 175 ppm solution) | Fruit Grams ([2]; 175 ppm solution) | Marketable Crates/Acre ([2]; 175 ppm solution) | Crates/Acres ([2]; 375 ppm solution) | Fruit Grams ([2]; 375 ppm solution) | Marketable Crates/Acre ([2]; 375 ppm solution) | Crates/Acres ([2]; 475 ppm solution) | Fruit Grams ([2]; 475 ppm solution) | Marketable Crates/Acre ([2]; 475 ppm solution) | Yield performance of treated soils versus methyl bromide treated soils ([2]; comparison in words) | Yield at the higher chlorine dioxide levels ([2]; higher versus lower chlorine dioxide levels, in words) | Consequences to the environment [3] | Effectiveness as a fumigant ([1]; E.P.A. label recommended dose rates) | Crates/Acres [2, 4] | Fruit Grams [2, 4] | Marketable Crates/Acre [2, 4]
[O][Cl+][O-] [Chlorine Dioxide, chlorine dioxide] | suspend weed and undesirable plant growth entirely | 495 Crates/Acres | 25.5 Grams | 431 Crates/Acre | 483 Crates/Acres | 26.6 Grams | 435 Crates/Acre | 429 Crates/Acres | 27.1 Grams | 572 Crates/Acre | 651 Crates/Acres | 28.9 Grams | 605 Crates/Acre | exceeded the methyl bromide treated soils | greater yields | without any negative consequences to the environment | – | – | – | –
CBr [Methyl Bromide, Methyl-bromide, reference compound] | – | – | – | – | – | – | – | – | – | – | – | – | – | – | – | had an adverse effect on the environment | effective as a fumigant | 455 Crates/Acres | 32.8 Grams | 428 Crates/Acre
